Test results as given in patent US11439641B2, “Pyrimidine JAK inhibitors for the treatment of skin diseases” (THERAVANCE BIOPHARMA R&D IP, LLC, priority 2019, dated 2022).

Legend:
Caco-2 cell monolayer = test: Caco-2 Permeation Assay; format: in vitro ADME; details: Papp, 5 μM compound; for Cacoverap Kp 10^−6 cm/sec: A→B in the presence of 25 μM verapamil (P-gp inhibitor); for Caco Kp 10^−6 cm/sec: apical to basal (A→B)
In short: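 Compound at 5 μM, in duplicate, crosses Caco-2 monolayers apical to basal over 120 min at 37 °C. This is run with and without 25 μM verapamil to test for P-gp efflux. Samples are quantified by LC-MS/MS, and Papp in cm/sec is calculated as dQ/(dt × area × concentration).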

JAK3 = JAK3 (Homo sapiens (Human), UniProt P52333); test: Biochemical JAK and Tyk2 Kinase Assays (LanthaScreen), JAK3; details: 1.6 μM ATP (Km), pIC50 converted to pKi by Cheng-Prusoff
JAK2 = JAK2 (Homo sapiens (Human), UniProt O60674); test: Biochemical JAK and Tyk2 Kinase Assays (LanthaScreen), JAK2; details: 3 μM ATP (Km); pIC50 converted to pKi by Cheng-Prusoff
[1] = test system: IL-2 stimulated pSTAT5 in Tall-1 T cells; test: Inhibition of IL-2 Stimulated pSTAT5 in Tall-1 T Cells; format: cell-based; details: Tall-1 human T cell line, IL-2 300 ng/mL, AlphaLisa
In short: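 Cells preincubated with compound 1 hour at 37° C, then stimulated with IL-2 (final 300 ng/mL) for 30 minutes. After lysis, pSTAT5 (Tyr694/699) read by AlphaLISA luminescence. IC50 from inhibition curves, reported as pIC50 (mean±SD).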

[2] = Human Liver Microsome Assay; details: human liver microsomes 0.1 mg/mL, 0.1 μM compound, 1 mM NADPH, 37° C.
Description: Assay 4: Human Liver Microsome Assay
The objective of this assay was to assess the metabolic stability of test compounds in an in vitro human liver sub-fraction. Human liver microsomes obtained from Bioreclamation-IVT (Baltimore, Md.) were thawed on ice and diluted into 0.1 M potassium phosphate buffer pH 7.4 to yield final incubation protein concentrations of 0.1 mg/mL. Test compounds (10 mM) were diluted into NADPH cofactor to yield final incubation concentrations of 0.1 μM test compound and 1 mM NADPH. Incubations were conducted at 37° C. temperature and test aliquots were taken at time points 0, 5, 8, 15, 30 and 45 minutes. Each aliquot was crashed into water with 3% formic acid and 1 μM internal standard. The resulting samples were injected onto an LC-MS/MS system for analysis.
For each incubation, the peak area of the analytes in each t0 aliquot was set to 100% and the peak areas from subsequent time point aliquots were converted to percentage of parent compound remaining relative to t0. The percentage of parent compound remaining was converted to natural log scale and plotted versus time in minutes. A linear regression analysis was performed for the initial decline of the parent disappearance profile and a formula for the best-fit line determined. The slope of the resultant line was normalized to protein concentration in mg/mL protein or number of cells/mL and CLint was calculated as follows for liver microsomes: CLint(μL·min^−1·mg^−1)=(Slope×1000)/[protein,mg/mL]
CLint values from 9-49 μl/min/mg represent moderate clearance (i.e. 30-70% of hepatic blood flow in human) and values >50 μl/min/mg represent high hepatic clearance (i.e. >70% of hepatic blood flow in human).

Chain of JAK2 (O60674 whole entry): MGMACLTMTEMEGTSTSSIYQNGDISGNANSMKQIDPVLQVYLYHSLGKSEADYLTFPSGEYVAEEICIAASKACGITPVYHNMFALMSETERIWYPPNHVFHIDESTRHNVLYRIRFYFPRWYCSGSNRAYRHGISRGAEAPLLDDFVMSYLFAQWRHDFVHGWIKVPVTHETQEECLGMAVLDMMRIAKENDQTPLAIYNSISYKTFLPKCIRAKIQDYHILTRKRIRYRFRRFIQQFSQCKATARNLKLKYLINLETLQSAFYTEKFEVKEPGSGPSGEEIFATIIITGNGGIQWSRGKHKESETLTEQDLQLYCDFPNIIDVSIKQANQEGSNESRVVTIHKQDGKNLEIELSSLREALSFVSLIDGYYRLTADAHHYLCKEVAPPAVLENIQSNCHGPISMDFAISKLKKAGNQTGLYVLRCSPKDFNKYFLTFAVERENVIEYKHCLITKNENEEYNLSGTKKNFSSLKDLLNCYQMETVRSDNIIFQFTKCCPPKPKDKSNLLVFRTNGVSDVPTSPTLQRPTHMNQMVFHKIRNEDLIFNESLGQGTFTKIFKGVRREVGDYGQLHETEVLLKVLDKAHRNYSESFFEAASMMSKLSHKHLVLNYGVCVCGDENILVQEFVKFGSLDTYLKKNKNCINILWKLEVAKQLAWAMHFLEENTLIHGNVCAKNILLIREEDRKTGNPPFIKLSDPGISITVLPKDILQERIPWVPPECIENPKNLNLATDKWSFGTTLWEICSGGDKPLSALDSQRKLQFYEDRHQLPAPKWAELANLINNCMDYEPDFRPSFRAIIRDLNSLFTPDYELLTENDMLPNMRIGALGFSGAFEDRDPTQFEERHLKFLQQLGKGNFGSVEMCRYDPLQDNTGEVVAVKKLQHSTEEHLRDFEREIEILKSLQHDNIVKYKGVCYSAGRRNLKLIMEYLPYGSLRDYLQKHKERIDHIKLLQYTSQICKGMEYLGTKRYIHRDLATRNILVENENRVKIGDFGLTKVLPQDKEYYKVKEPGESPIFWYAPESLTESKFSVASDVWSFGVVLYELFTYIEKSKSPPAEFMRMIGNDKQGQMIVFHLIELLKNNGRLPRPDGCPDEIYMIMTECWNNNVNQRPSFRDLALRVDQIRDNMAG
Chain of JAK3 (P52333 whole entry): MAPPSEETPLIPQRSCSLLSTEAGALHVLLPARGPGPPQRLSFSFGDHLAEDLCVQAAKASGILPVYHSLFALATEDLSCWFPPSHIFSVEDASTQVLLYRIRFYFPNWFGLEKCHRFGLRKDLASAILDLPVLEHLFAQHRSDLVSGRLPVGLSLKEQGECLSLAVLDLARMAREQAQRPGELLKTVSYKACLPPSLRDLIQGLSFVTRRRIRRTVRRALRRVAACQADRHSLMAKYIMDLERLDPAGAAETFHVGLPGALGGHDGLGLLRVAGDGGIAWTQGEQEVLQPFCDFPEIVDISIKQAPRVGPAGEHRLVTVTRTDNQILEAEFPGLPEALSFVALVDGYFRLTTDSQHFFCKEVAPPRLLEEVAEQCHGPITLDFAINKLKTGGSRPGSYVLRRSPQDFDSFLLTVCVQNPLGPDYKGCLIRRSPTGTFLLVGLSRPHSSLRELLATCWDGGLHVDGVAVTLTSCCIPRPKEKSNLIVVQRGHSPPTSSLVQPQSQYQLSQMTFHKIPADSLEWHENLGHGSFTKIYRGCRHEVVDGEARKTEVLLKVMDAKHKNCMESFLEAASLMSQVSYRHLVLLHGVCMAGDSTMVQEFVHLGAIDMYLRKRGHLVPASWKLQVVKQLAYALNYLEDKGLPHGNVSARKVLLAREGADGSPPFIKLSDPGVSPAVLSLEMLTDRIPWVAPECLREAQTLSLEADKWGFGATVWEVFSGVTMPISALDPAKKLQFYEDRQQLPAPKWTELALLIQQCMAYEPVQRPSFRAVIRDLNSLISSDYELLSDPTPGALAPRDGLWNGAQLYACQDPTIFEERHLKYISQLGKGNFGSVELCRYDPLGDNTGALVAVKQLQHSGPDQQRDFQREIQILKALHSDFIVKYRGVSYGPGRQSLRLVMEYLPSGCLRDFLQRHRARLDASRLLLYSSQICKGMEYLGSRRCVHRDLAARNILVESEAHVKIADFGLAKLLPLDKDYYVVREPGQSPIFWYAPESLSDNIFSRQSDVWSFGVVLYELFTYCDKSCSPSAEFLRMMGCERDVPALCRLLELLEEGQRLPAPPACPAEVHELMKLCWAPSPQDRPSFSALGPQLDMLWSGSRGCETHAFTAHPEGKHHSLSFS

For CCS(=O)(=O)N1[C@@H]2CCC[C@H]1C[C@H](N(C)c1nc(Nc3cc(C)[nH]n3)cc(C3CCCO3)n1)C2 (stereo partly drawn) [Compound 8, N^2-((1R,3s,5S)-9-(ethylsulfonyl)-9-azabicyclo[3.3.1]nonan-3-yl)-N2-methyl-N4-(5-methyl-1H-pyrazol-3-yl)-6-(tetrahydrofuran-2-yl)pyrimidine-2,4-diamine], the “Cacoverap Kp 10^−6 cm/sec” value (Caco-2 cell monolayer) was “A (A represents a value above 35×10^−6 cm/sec)”, the “Caco Kp 10^−6 cm/sec” value (Caco-2 cell monolayer) was “A (A represents a value above 30×10^−6 cm/sec)” and the “JAK 3 (pKi)” value (JAK3) was “B (B represents a pKi value between 9 and 10 (Ki between 1 nM and 0.1 nM))”. For the same molecule, the “JAK 2 (pKi)” value (JAK2) was “A (A represents a pKi value ≥10 (Ki≤0.1 nM))”, the “Tall-1 IL2 pSTAT5 (pIC50)” value [1] was “A (A represents a pIC50 value ≥8.0)” and the “HLM Clin μL/min/mg” value [2] was “A (A represents a Clint value between 1250 and 3000)”.

For COC(=O)N1[C@@H]2CCC[C@H]1C[C@H](N(C)c1nc(Nc3cc(C)[nH]n3)cc(O[C@@H]3CCOC3)n1)C2 [Compound 23], the “Cacoverap Kp 10^−6 cm/sec” value (Caco-2 cell monolayer) was “B (B represents a value between 20×10^−6 and 35×10^−6 cm/sec)”, the “Caco Kp 10^−6 cm/sec” value (Caco-2 cell monolayer) was “A (A represents a value above 30×10^−6 cm/sec)” and the Ki (JAK3; read-out: JAK 3 (pKi) (converted)) was 0.1 to 1 nM. The “JAK 2 (pKi)” value (JAK2) was “A (A represents a pKi value ≥10 (Ki≤0.1 nM))” and the IC50 ([1]; read-out: Tall-1 IL2 pSTAT5 (pIC50) (converted)) was 10 to 31.6 nM.

In the case of CCS(=O)(=O)N1[C@@H]2CCC[C@H]1C[C@H](N(C)c1nc(COC3COC3)c(F)c(Nc3cc(C)[nH]n3)n1)C2 [Compound 41, N2-((1R,3s,5S)-9-(ethylsulfonyl)-9-azabicyclo[3.3.1]nonan-3-yl)-5-fluoro-N2-methyl-N4-(5-methyl-1H-pyrazol-3-yl)-6-((oxetan-3-yloxy)methyl)pyrimidine-2,4-diamine], the “Cacoverap Kp 10^−6 cm/sec” value (Caco-2 cell monolayer) is reported as “A (A represents a value above 35×10^−6 cm/sec)”, the “Caco Kp 10^−6 cm/sec” value (Caco-2 cell monolayer) is reported as “A (A represents a value above 30×10^−6 cm/sec)” and the “JAK 3 (pKi)” value (JAK3) is reported as “B (B represents a pKi value between 9 and 10 (Ki between 1 nM and 0.1 nM))”. For the same molecule, the “JAK 2 (pKi)” value (JAK2) was “A (A represents a pKi value ≥10 (Ki≤0.1 nM))”, the “Tall-1 IL2 pSTAT5 (pIC50)” value [1] was “A (A represents a pIC50 value ≥8.0)” and the “HLM Clin μL/min/mg” value [2] was “C (C represents a Clint value between 130 and 500)”.

For CCS(=O)(=O)N1[C@@H]2CCC[C@H]1C[C@H](N(C)c1nc(CO[C@H]3CCOC3)c(F)c(Nc3cc(C)[nH]n3)n1)C2 [Compound 42, N2-((1R,3s,5S)-9-(ethylsulfonyl)-9-azabicyclo[3.3.1]nonan-3-yl)-5-fluoro-N2-methyl-N4-(5-methyl-1H-pyrazol-3-yl)-6-((((S)-tetrahydrofuran-3-yl)oxy)methyl)pyrimidine-2,4-diamine], the “Caco Kp 10^−6 cm/sec” value (Caco-2 cell monolayer) was “A (A represents a value above 30×10^−6 cm/sec)”, the “JAK 3 (pKi)” value (JAK3) was “B (B represents a pKi value between 9 and 10 (Ki between 1 nM and 0.1 nM))” and the “JAK 2 (pKi)” value (JAK2) was “A (A represents a pKi value ≥10 (Ki≤0.1 nM))”. For the same molecule, the “Tall-1 IL2 pSTAT5 (pIC50)” value [1] was “A (A represents a pIC50 value ≥8.0)” and the “HLM Clin μL/min/mg” value [2] was “B (B represents a Clint value between 500 and 1250)”.

For CCS(=O)(=O)N1[C@@H]2CCC[C@H]1C[C@H](N(C)c1nc(CO[C@@H]3CCOC3)c(F)c(Nc3cc(C)[nH]n3)n1)C2 [Compound 43, N2-((1R,3s,5S)-9-(ethylsulfonyl)-9-azabicyclo[3.3.1]nonan-3-yl)-5-fluoro-N2-methyl-N4-(5-methyl-1H-pyrazol-3-yl)-6-((((R)-tetrahydrofuran-3-yl)oxy)methyl)pyrimidine-2,4-diamine], the “Caco Kp 10^−6 cm/sec” value (Caco-2 cell monolayer) was “A (A represents a value above 30×10^−6 cm/sec)”, the “JAK 3 (pKi)” value (JAK3) was “B (B represents a pKi value between 9 and 10 (Ki between 1 nM and 0.1 nM))” and the “JAK 2 (pKi)” value (JAK2) was “A (A represents a pKi value ≥10 (Ki≤0.1 nM))”. The “Tall-1 IL2 pSTAT5 (pIC50)” value [1] was “A (A represents a pIC50 value ≥8.0)” and the “HLM Clin μL/min/mg” value [2] was “C (C represents a Clint value between 130 and 500)”.
